{"source": "patent US12258354B2", "about": "“AhR modulators” (IDEAYA BIOSCIENCES, INC., priority 2018, dated 2025)"}
{"biological_target": "T1, hAhR (Homo sapiens, UniProt P35869)", "T1 construct": "Stably integrated DRE-luciferase cell lines were generated by transducing the both cell lines with Cignal XRE luciferase reporter; endogenous in cells; host or cells: HEPG2 DRE-Luc cells (only the XRE luciferase reporter was transduced)", "T1 sequence (P35869 11-848)": "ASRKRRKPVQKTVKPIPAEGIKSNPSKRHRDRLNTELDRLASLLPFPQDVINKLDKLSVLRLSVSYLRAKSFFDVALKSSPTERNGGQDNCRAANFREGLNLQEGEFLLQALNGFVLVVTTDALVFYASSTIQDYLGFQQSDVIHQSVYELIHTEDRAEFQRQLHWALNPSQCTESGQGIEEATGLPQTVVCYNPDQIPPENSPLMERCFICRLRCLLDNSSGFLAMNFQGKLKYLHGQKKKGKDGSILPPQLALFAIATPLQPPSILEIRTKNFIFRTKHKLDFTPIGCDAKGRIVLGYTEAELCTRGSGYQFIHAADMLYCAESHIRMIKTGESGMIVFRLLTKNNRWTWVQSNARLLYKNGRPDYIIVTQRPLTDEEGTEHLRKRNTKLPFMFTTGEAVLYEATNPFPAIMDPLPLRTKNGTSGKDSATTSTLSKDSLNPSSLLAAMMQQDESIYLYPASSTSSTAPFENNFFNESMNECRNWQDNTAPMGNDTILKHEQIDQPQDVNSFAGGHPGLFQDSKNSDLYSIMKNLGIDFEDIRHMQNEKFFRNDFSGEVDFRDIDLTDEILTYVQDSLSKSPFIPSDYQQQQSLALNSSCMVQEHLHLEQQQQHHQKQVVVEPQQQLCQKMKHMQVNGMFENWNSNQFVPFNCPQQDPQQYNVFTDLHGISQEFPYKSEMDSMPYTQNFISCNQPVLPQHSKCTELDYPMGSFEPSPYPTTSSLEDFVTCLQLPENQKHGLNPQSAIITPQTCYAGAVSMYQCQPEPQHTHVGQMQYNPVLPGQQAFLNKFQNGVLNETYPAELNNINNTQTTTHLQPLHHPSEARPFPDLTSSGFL", "test": "DRE-luciferase transcriptional reporter assay in HEPG2 DRE-Luc cells, TCDD-induced (antagonist mode)", "format": "cell-based", "settings": "relative IC50, 3 nM TCDD, 24-hour incubation, firefly luciferase readout", "method": "HEPG2 and HEPA1C1C7 cells were maintained in MEM and αMEM without nucleosides supplemented with 10% heat inactivated FBS respectively. Stably integrated DRE-luciferase cell lines were generated by transducing the both cell lines with Cignal XRE luciferase reporter (Qiagen) lentiviral particles according to the manufacturer protocol. For both cell lines stably integrated reporter cell lines were selected for the presence of 2 μg/mL puromycin. Following selection of stably integrated cell line pools, clonal cell lines were isolated by limiting dilution in 96-well plates. Transcriptional assays were performed by seeding 100 μL of cells at a density of 250,000 or 100,000 cells/mL, for HEPG2 and HEPA1C1C7 DRE-Luc cells respectively, into 96-well cell culture plates in OptiMEM supplemented with 0.5% heat inactivated FBS and allowed to attach overnight. For modulator assays, the compounds were added in a semi-log dose response using a D300e Digital Dispenser (Tecan) followed normalization with vehicle (DMSO). Immediately following compound addition 10 μL of 2,3,7,8-Tetrachlorodibenzo-p-dioxin (TCDD) was added to the cells to a final concentration of 3 nM or 0.3 nM for the HEPG2 and HEPA1C1C7 DRE-Luc cells respectively. Following 24-hour incubation, the medium was removed and the cells were lysed in 25 μL of Reporter Lysis Buffer (Promega). Firefly luciferase activity was measured immediately following the addition of 50 μL Luciferase Assay Reagent (Promega). The percent maximal activity for each point was determined using the following equation: (RLUsample−RLUvehicle−TCDD)/(RLUvehicle+TCDD RLUvehicle−TCDD)*100. The relative IC50, defined as the compound concentration required to reduce the TCDD induced response between the top and bottom plateau of each individual dose response curve by half, for each compound was determined using Prism 7 (GraphPad Software).", "units": {"IC50": "nM"}}
{"smiles": "Cc1cc(-c2ccc3nc(F)ccc3n2)ccc1N1CCOc2cnn(C)c2C1=O", "note": "[compound 052, 7-(4-(6-fluoro-1,5-naphthyridin-2-yl)-2-methylphenyl)-1-methyl-6,7-dihydro-1H-pyrazolo[3,4-f][1,4]oxazepin-8 (5H)-one]", "IC50": "500 to 1000"}
{"smiles": "Cc1cc(-c2ncc3cc(C(F)(F)F)ccc3n2)ccc1N1CCOc2cnn(C)c2C1=O", "note": "[compound 029, 1-methyl-7-(2-methyl-4-(6-(trifluoromethyl)quinazolin-2-yl)phenyl)-6,7-dihydro-1H-pyrazolo[3,4-f][1,4]oxazepin-8 (5H)-one]", "IC50": "< 200"}
{"smiles": "Cc1cc(-c2ncc3cc(C(F)(F)F)ccc3n2)ccc1N1CCn2nc(C(C)(C)O)c(C)c2C1=O", "note": "[compound 059, 2-(2-hydroxypropan-2-yl)-3-methyl-5-(2-methyl-4-(6-(trifluoromethyl)-quinazolin-2-yl)phenyl)-6,7-dihydropyrazolo[1,5-a]pyrazin-4 (5H)-one]", "IC50": "< 200"}
{"smiles": "Cc1cc(-c2ncc3nc(C(F)(F)F)ccc3n2)ccc1N1CCn2ncc(C)c2C1=O", "note": "[compound 016, 3-methyl-5-(2-methyl-4-(6-(trifluoromethyl)pyrido[3,2-d]pyrimidin-2-yl)phenyl)-6,7-dihydropyrazolo[1,5-a]pyrazin-4 (5H)-one]", "IC50": "< 200"}
{"smiles": "Cc1cc(N2CCn3ncc(C)c3C2=O)c(F)cc1-c1ccc2cc(C(F)(F)F)ccc2n1", "note": "[compound 024, 5-(2-fluoro-5-methyl-4-(6-(trifluoromethyl)quinolin-2-yl)phenyl)-3-methyl-6,7-dihydropyrazolo[1,5-a]pyrazin-4 (5H)-one]", "IC50": "< 200"}
{"smiles": "Cc1cc(N2CCc3cnn(C)c3C2=O)c(C)cc1-c1ccc2nc(C(F)(F)F)ccc2n1", "note": "[compound 010, 6-(2,5-dimethyl-4-(6-(trifluoromethyl)-1,5-naphthyridin-2-yl)phenyl)-1-methyl-1,4,5,6-tetrahydro-7H-pyrazolo[3,4-c]pyridin-7-one]", "IC50": "1000 to 10000"}
{"smiles": "Cc1cc(-c2ncc3nc(C(F)(F)F)ccc3n2)ccc1N1CCn2nc(CN3CCOCC3)c(C)c2C1=O", "note": "[Example 105, 3-methyl-5-(2-methyl-4-(6-(trifluoromethyl)pyrido[3,2-d]pyrimidin-2-yl)phenyl)-2-(morpholinomethyl)-6,7-dihydropyrazolo[1,5-a]pyrazin-4 (5H)-one]", "IC50": "< 200"}
{"smiles": "Cc1cc(-c2ncc3cc(C(F)(F)F)ccc3n2)ccc1N1CCn2ncc(N3CCOCC3)c2C1=O", "note": "[compound 068, 5-(2-methyl-4-(6-(trifluoromethyl)quinazolin-2-yl)phenyl)-3-morpholino-6,7-dihydropyrazolo[1,5-a]pyrazin-4 (5H)-one]", "IC50": "< 200"}
{"smiles": "CCOC(=O)c1nn2c(c1C)C(=O)N(c1ccc(-c3ncc4cc(C(F)(F)F)ccc4n3)cc1C)CC2", "note": "[compound 056, ethyl 3-methyl-5-(2-methyl-4-(6-(trifluoromethyl)quinazolin-2-yl)phenyl)-4-oxo-4,5,6,7-tetrahydropyrazolo[1,5-a]pyrazine-2-carboxylate]", "IC50": "< 200"}
{"smiles": "Cn1ncc2c1C(=O)N(c1ccc(-c3ncc4nc(C(F)(F)F)ccc4n3)cc1)CCO2", "note": "[compound 050, 1-methyl-7-(4-(6-(trifluoromethyl)pyrido[3,2-d]pyrimidin-2-yl)phenyl)-6,7-dihydro-1H-pyrazolo[3,4-f][1,4]oxazepin-8 (5H)-one]", "IC50": "< 200"}
{"smiles": "Cc1cc(-c2ncc3nc(C(F)(F)F)ccc3n2)ccc1N1CCOc2cnn(C)c2C1", "note": "[compound 049, 1-methyl-7-(2-methyl-4-(6-(trifluoromethyl)pyrido[3,2-d]pyrimidin-2-yl)phenyl)-5,6,7,8-tetrahydro-1H-pyrazolo[3,4-f][1,4]oxazepine]", "IC50": "< 200"}
{"smiles": "Cc1cc(-c2ncc3nc(C(F)(F)F)ccc3n2)ccc1N1C(=O)c2[nH]ncc2OCC1C", "note": "(stereo not drawn) [compound 046, 6-methyl-7-(2-methyl-4-(6-(trifluoromethyl)pyrido[3,2-d]pyrimidin-2-yl)phenyl)-6,7-dihydro-1H-pyrazolo[3,4-f][1,4]oxazepin-8 (5H)-one]", "IC50": "< 200"}
{"smiles": "Cc1cc(-c2ncc3cc(C(F)(F)F)ccc3n2)ccc1N1CCOc2cnn(Cc3nnn[nH]3)c2C1=O", "note": "[compound 075, 7-[2-methyl-4-[6-(trifluoromethyl)quinazolin-2-yl]phenyl]-1-[(1H-1,2,3,4-tetrazol-5-yl)methyl]-1H,5H,6H,7H,8H-pyrazolo[3,4-f][1,4]oxazepin-8-one]", "IC50": "1000 to 10000"}
{"smiles": "Cc1cc(-c2ncc3cc(C(F)(F)F)ccc3n2)ccc1N1CCn2nc(CN3CCC(F)CC3)c(C)c2C1=O", "note": "[Example 99, 2-((4-fluoropiperidin-1-yl)methyl)-3-methyl-5-(2-methyl-4-(6-(trifluoromethyl)-quinazolin-2-yl)phenyl)-6,7-dihydropyrazolo[1,5-a]pyrazin-4 (5H)-one]", "IC50": "< 200"}
{"smiles": "Cc1cc(-c2ncc3cc(C(F)(F)F)ccc3n2)ccc1N1CCn2nc(CN3CCC4(COC4)C3)c(C)c2C1=O", "note": "[Example 111, 2-((2-oxa-6-azaspiro[3.4]octan-6-yl)methyl)-3-methyl-5-(2-methyl-4-(6-(trifluoromethyl)quinazolin-2-yl)phenyl)-6,7-dihydropyrazolo[1,5-a]pyrazin-4 (5H)-one]", "IC50": "< 200"}
{"smiles": "Cc1cc(-c2ncc3cc(C(F)(F)F)ccc3n2)ccc1N1C(=O)c2[nH]ncc2OCC1C", "note": "(stereo not drawn) [compound 044, 6-methyl-7-(2-methyl-4-(6-(trifluoromethyl)quinazolin-2-yl)phenyl)-6,7-dihydro-1H-pyrazolo[3,4-f][1,4]oxazepin-8 (5H)-one]", "IC50": "< 200"}
{"smiles": "CCOC(=O)c1nn(C)c2c1OCCN(c1ccc(-c3ncc4nc(C(F)(F)F)ccc4n3)cc1C)C2=O", "note": "[compound 086, ethyl 1-methyl-7-(2-methyl-4-(6-(trifluoromethyl)pyrido[3,2-d]pyrimidin-2-yl)phenyl)-8-oxo-5,6,7,8-tetrahydro-1H-pyrazolo[3,4-f][1,4]oxazepine-3-carboxylate]", "IC50": "< 200"}
{"smiles": "Cc1cc(-c2ncc3cc(F)ccc3n2)ccc1N1CCOc2cnn(C)c2C1=O", "note": "[compound 053, 7-(4-(6-fluoroquinazolin-2-yl)-2-methylphenyl)-1-methyl-6,7-dihydro-1H-pyrazolo[3,4-f][1,4]oxazepin-8 (5H)-one]", "IC50": "200 to 500"}
{"smiles": "Cc1cc(-c2ncc3cc(C(F)(F)F)ccc3n2)ccc1N1CCn2ncc(C(=O)O)c2C1=O", "note": "[compound 065, 5-(2-methyl-4-(6-(trifluoromethyl)quinazolin-2-yl)phenyl)-4-oxo-4,5,6,7-tetrahydropyrazolo[1,5-a]pyrazine-3-carboxylic acid]", "IC50": "500 to 1000"}
{"smiles": "Cc1cc(-c2ncc3cc(C(F)(F)F)ccc3n2)ccc1N1CCn2nc(CN3CCO[C@@H](C)C3)c(C)c2C1=O", "note": "[Example 96, (S)-3-methyl-5-(2-methyl-4-(6-(trifluoromethyl)quinazolin-2-yl)phenyl)-2-((2-methylmorpholino)methyl)-6,7-dihydropyrazolo[1,5-a]pyrazin-4 (5H)-one]", "IC50": "< 200"}
{"smiles": "Cc1cc(-c2ccc3nc(C(F)(F)F)ccc3n2)ccc1N1CCOc2cnn(C)c2C1=O", "note": "[compound 030, 1-methyl-7-(2-methyl-4-(6-(trifluoromethyl)-1,5-naphthyridin-2-yl)phenyl)-6,7-dihydro-1H-pyrazolo[3,4-f][1,4]oxazepin-8 (5H)-one]", "IC50": "< 200"}
